# Test results as given in ChEMBL document CHEMBL4507305, “Data for DCP probe TP-024” (2021).
# Columns and labels:
# Conditions in all cases: Compound concentration 1000.0 nM
# [1] = biological target: Atypical kinase COQ8A, mitochondrial (Homo sapiens) (UniProt Q8NI60)
# [2] = biological target: ALK tyrosine kinase receptor (Homo sapiens) (UniProt Q9UM73)
# [3] = biological target: 5'-AMP-activated protein kinase catalytic subunit alpha-1 (Homo sapiens) (UniProt Q13131)
# [4] = biological target: Mitogen-activated protein kinase kinase kinase 6 (Homo sapiens) (UniProt O95382)
# [5] = test system: Serine/threonine-protein kinase B-raf (Homo sapiens), P15056 [V600E]
# [6] = biological target: Calcium/calmodulin-dependent protein kinase kinase 1 (Homo sapiens) (UniProt Q8N5S9)
# [7] = biological target: Cyclin-dependent kinase 2 (Homo sapiens) (UniProt P24941)
# [8] = biological target: Cyclin-dependent kinase 5 (Homo sapiens) (UniProt Q00535)
# [9] = biological target: Dual specificity protein kinase CLK2 (Homo sapiens) (UniProt P49760)
# [10] = biological target: Casein kinase I isoform alpha-like (Homo sapiens) (UniProt Q8N752)
# [11] = biological target: Serine/threonine-protein kinase DCLK3 (Homo sapiens) (UniProt Q9C098)
# [12] = test system: Epidermal growth factor receptor (Homo sapiens), P00533 [UNDEFINED MUTATION]
# [13] = test system: Epidermal growth factor receptor (Homo sapiens), P00533 [G719S]
# [14] = test system: Epidermal growth factor receptor (Homo sapiens), P00533 [L858R,T790M]
# [15] = biological target: Ephrin type-B receptor 1 (Homo sapiens) (UniProt P54762)
# [16] = biological target: Mitogen-activated protein kinase 7 (Homo sapiens) (UniProt Q13164)
# [17] = biological target: Receptor-type tyrosine-protein kinase FLT3 (Homo sapiens) (UniProt P36888)
# [18] = biological target: Cyclin-G-associated kinase (Homo sapiens) (UniProt O14976)
# [19] = biological target: Beta-adrenergic receptor kinase 1 (Homo sapiens) (UniProt P25098)
# [20] = biological target: Rhodopsin kinase GRK7 (Homo sapiens) (UniProt Q8WTQ7)
# [21] = biological target: Mitogen-activated protein kinase kinase kinase kinase 1 (Homo sapiens) (UniProt Q92918)
# [22] = test system: Mast/stem cell growth factor receptor Kit (Homo sapiens), P10721 [D816H]
# [23] = biological target: Mitogen-activated protein kinase kinase kinase 1 (Homo sapiens) (UniProt Q13233)
# [24] = biological target: Serine/threonine-protein kinase MARK1 (Homo sapiens) (UniProt Q9P0L2)
# [25] = biological target: MAP kinase-interacting serine/threonine-protein kinase 1 (Homo sapiens) (UniProt Q9BUB5)
# [26] = biological target: MAP kinase-interacting serine/threonine-protein kinase 2 (Homo sapiens) (UniProt Q9HBH9)
# [27] = biological target: Myosin light chain kinase (Homo sapiens) (UniProt Q32MK0)
# [28] = biological target: Serine/threonine-protein kinase 24 (Homo sapiens) (UniProt Q9Y6E0)
# [29] = biological target: Myosin light chain kinase, smooth muscle (Homo sapiens) (UniProt Q15746)
# [30] = biological target: Serine/threonine-protein kinase 38-like (Homo sapiens) (UniProt Q9Y2H1)
# [31] = biological target: Serine/threonine-protein kinase Nek3 (Homo sapiens) (UniProt P51956)
# [32] = biological target: Mitogen-activated protein kinase 14 (Homo sapiens) (UniProt Q16539)
# [33] = biological target: Serine/threonine-protein kinase PAK 1 (Homo sapiens) (UniProt Q13153)
# [34] = biological target: Serine/threonine-protein kinase PAK 5 (Homo sapiens) (UniProt Q9P286)
# [35] = biological target: Cyclin-dependent kinase 18 (Homo sapiens) (UniProt Q07002)
# [36] = biological target: Calcium-dependent protein kinase 1 (Plasmodium falciparum) (UniProt P62344)
# [37] = biological target: Protein kinase C iota type (Homo sapiens) (UniProt P41743)
# [38] = biological target: Receptor-interacting serine/threonine-protein kinase 4 (Homo sapiens) (UniProt P57078)
# [39] = biological target: Serine/threonine-protein kinase Sgk1 (Homo sapiens) (UniProt O00141)
# [40] = biological target: Tyrosine-protein kinase Srms (Homo sapiens) (UniProt Q9H3Y6)
# [41] = biological target: TGF-beta receptor type-1 (Homo sapiens) (UniProt P36897)
# [42] = biological target: Serine/threonine-protein kinase tousled-like 2 (Homo sapiens) (UniProt Q86UE8)
# [43] = biological target: Non-receptor tyrosine-protein kinase TNK1 (Homo sapiens) (UniProt Q13470)
# [44] = biological target: Testis-specific serine/threonine-protein kinase 3 (Homo sapiens) (UniProt Q96PN8)
# [45] = biological target: Tyrosine-protein kinase TXK (Homo sapiens) (UniProt P42681)
# Serine/threonine-protein kinase MARK1 (Homo sapiens), sequence (Q9P0L2 whole entry, looked up): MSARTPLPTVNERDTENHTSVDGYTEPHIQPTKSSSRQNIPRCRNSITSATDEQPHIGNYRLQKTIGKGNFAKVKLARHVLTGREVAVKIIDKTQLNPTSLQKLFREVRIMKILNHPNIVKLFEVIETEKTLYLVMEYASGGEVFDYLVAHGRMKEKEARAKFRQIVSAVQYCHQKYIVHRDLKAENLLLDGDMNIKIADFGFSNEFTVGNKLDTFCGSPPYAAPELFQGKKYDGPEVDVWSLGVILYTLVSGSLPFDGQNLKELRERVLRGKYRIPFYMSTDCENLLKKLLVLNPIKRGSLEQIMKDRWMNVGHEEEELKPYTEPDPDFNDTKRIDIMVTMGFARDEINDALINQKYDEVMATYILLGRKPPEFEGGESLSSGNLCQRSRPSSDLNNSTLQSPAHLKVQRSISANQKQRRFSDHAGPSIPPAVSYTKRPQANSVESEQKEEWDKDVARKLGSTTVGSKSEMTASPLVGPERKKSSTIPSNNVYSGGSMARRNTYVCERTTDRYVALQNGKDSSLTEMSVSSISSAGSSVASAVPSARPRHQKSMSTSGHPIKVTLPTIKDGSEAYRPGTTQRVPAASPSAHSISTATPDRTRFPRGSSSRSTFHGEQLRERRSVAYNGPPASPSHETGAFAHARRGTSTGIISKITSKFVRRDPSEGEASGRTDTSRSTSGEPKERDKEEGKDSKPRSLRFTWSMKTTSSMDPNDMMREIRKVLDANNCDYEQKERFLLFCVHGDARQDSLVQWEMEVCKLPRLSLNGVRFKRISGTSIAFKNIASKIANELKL
# Cyclin-dependent kinase 5 (Homo sapiens), sequence (Q00535 whole entry, looked up): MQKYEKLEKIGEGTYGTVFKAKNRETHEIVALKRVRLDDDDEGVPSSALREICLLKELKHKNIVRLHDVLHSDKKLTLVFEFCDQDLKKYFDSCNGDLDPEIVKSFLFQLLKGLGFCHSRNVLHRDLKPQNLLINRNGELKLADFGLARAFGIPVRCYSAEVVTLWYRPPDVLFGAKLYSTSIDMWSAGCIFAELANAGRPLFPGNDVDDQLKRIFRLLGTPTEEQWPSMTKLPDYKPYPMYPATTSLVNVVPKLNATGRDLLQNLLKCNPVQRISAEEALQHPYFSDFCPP
# Rhodopsin kinase GRK7 (Homo sapiens), sequence (Q8WTQ7 whole entry): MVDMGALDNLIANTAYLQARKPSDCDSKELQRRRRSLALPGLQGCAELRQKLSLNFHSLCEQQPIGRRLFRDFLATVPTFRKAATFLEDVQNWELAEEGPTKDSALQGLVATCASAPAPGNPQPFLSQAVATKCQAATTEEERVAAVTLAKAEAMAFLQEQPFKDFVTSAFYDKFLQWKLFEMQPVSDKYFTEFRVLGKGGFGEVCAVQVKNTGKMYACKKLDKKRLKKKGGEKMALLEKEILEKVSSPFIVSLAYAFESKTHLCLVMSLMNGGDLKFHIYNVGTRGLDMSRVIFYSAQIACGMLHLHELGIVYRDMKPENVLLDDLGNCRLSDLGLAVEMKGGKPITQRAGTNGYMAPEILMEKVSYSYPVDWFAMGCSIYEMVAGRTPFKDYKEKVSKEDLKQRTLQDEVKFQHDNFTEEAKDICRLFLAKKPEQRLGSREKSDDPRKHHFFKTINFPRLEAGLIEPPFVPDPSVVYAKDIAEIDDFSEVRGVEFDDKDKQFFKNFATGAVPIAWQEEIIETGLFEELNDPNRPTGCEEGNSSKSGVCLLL
# ALK tyrosine kinase receptor (Homo sapiens), sequence (Q9UM73 19-1620 limits assumed): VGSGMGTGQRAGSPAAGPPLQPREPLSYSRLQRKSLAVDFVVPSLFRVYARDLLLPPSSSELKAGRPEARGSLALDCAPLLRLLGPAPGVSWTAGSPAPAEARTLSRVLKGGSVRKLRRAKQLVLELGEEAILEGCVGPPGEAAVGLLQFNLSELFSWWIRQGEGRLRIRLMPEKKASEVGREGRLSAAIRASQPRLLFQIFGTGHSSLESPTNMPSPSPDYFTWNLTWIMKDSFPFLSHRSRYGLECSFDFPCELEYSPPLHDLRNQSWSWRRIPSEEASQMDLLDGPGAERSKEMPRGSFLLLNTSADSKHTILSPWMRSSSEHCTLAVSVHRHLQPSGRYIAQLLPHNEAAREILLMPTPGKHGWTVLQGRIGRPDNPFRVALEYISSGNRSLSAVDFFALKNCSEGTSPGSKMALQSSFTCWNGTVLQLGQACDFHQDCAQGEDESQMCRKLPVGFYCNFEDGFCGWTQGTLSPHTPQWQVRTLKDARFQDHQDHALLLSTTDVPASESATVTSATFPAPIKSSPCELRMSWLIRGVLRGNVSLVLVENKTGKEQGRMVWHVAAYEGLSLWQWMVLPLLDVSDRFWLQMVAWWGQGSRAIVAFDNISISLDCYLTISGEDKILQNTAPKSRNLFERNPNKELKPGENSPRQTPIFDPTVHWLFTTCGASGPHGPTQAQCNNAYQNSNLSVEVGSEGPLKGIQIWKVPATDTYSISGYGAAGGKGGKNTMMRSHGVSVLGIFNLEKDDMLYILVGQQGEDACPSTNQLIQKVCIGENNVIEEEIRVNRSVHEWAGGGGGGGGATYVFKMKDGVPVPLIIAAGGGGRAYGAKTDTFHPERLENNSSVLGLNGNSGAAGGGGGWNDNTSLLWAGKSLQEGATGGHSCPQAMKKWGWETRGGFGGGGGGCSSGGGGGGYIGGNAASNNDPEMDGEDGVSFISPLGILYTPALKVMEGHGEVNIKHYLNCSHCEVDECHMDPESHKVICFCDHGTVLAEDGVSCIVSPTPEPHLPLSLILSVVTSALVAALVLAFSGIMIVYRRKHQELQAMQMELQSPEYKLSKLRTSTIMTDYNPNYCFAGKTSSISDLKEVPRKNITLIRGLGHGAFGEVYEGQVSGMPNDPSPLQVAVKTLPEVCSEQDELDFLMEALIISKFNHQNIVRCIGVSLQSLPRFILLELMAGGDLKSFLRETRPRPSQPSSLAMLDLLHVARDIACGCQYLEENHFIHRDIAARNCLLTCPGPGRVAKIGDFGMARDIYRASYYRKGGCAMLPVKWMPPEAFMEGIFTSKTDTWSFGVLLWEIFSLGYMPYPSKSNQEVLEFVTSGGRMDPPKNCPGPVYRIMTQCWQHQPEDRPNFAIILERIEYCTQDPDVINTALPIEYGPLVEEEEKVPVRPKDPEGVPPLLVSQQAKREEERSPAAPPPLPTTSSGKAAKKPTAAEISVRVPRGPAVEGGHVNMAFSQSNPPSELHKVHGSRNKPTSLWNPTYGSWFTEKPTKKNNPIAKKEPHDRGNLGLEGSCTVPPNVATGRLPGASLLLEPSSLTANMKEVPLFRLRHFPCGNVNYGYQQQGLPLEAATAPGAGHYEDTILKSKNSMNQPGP
# TGF-beta receptor type-1 (Homo sapiens), sequence (P36897 whole entry): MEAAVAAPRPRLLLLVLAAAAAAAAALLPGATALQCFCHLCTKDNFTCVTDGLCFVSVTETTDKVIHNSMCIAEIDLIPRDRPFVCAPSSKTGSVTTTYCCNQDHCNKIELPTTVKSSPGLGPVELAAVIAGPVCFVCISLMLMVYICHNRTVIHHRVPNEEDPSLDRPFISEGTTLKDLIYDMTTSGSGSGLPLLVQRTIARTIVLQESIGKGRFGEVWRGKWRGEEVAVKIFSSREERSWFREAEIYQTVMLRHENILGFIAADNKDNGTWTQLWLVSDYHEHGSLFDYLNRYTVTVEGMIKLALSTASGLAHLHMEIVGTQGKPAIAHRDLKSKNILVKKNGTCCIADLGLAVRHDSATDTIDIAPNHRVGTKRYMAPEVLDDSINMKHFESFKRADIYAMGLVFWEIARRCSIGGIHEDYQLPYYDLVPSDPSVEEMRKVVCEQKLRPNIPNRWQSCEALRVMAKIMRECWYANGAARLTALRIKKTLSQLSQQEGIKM
# Serine/threonine-protein kinase Nek3 (Homo sapiens), sequence (P51956 whole entry): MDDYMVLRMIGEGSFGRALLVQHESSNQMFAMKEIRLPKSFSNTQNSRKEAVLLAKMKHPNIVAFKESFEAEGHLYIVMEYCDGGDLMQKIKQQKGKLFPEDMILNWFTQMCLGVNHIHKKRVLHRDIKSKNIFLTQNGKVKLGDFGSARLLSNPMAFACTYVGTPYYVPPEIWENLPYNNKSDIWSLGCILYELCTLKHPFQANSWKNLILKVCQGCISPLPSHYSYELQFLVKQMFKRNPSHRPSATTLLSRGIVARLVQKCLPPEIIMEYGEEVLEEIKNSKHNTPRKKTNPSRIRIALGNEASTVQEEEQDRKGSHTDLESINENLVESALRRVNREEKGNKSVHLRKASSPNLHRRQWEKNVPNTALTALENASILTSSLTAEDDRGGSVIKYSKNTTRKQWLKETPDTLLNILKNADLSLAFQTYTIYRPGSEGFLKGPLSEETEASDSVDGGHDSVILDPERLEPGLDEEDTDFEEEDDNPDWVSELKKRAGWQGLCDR
# Serine/threonine-protein kinase B-raf (Homo sapiens), P15056 [V600E], sequence (P15056 whole entry V600E): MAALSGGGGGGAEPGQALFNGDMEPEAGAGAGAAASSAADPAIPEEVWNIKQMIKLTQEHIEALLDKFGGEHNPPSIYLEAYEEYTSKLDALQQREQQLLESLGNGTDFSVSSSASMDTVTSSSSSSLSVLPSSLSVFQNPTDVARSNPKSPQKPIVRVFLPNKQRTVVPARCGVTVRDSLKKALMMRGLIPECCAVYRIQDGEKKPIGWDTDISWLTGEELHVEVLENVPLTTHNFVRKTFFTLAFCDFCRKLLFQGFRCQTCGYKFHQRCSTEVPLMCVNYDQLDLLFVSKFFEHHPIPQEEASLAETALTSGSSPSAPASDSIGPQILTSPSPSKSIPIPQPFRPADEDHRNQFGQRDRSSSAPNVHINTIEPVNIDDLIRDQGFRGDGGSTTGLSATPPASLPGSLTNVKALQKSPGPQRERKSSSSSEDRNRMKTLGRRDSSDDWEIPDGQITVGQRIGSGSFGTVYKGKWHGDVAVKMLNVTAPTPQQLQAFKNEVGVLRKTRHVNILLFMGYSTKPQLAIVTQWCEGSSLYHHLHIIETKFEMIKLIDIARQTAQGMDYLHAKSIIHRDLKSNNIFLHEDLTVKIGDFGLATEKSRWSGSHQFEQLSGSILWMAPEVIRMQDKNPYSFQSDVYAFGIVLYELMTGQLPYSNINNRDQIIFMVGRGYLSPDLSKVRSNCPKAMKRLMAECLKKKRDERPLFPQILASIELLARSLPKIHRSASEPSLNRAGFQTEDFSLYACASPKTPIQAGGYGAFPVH
smiles,measurement,setting,value
Cc1nc(Cc2cccc(C(F)(F)F)c2)sc1-c1ccc(C(N)=O)nc1 [TP-024n],residual activity,[1],62%
same,residual activity,[2],99%
same,residual activity,[3],100%
same,residual activity,[4],99%
same,residual activity,[5],100%
same,residual activity,[6],98%
same,residual activity,[7],100%
same,residual activity,[8],100%
same,residual activity,[9],100%
same,residual activity,[10],100%
same,residual activity,[11],100%
same,residual activity,[12],0%
same,residual activity,[13],67%
same,residual activity,[14],87%
same,residual activity,[15],100%
same,residual activity,[16],88%
same,residual activity,[17],87%
same,residual activity,[18],91%
same,residual activity,[19],100%
same,residual activity,[20],100%
same,residual activity,[21],100%
same,residual activity,[22],100%
same,residual activity,[23],100%
same,residual activity,[24],90%
same,residual activity,[25],100%
same,residual activity,[26],100%
same,residual activity,[27],81%
same,residual activity,[28],100%
same,residual activity,[29],95%
same,residual activity,[30],44%
same,residual activity,[31],100%
same,residual activity,[32],100%
same,residual activity,[33],84%
same,residual activity,[34],97%
same,residual activity,[35],100%
same,residual activity,[36],100%
same,residual activity,[37],100%
same,residual activity,[38],83%
same,residual activity,[39],100%
same,residual activity,[40],77%
same,residual activity,[41],90%
same,residual activity,[42],82%
same,residual activity,[43],85%
same,residual activity,[44],100%
same,residual activity,[45],70%
Cc1cc(-n2nc(Cc3cc(F)cc(C(F)(F)F)c3)nc2C)ccc1C(N)=O [TP-024],residual activity,[1],100%
same,residual activity,[2],100%
same,residual activity,[3],100%
same,residual activity,[4],100%
same,residual activity,[5],100%
same,residual activity,[6],100%
same,residual activity,[7],100%
same,residual activity,[8],100%
same,residual activity,[9],94%
same,residual activity,[10],100%
same,residual activity,[11],94%
same,residual activity,[12],100%
same,residual activity,[13],100%
same,residual activity,[14],90%
same,residual activity,[15],97%
same,residual activity,[16],100%
same,residual activity,[17],100%
same,residual activity,[18],100%
same,residual activity,[19],100%
same,residual activity,[20],100%
same,residual activity,[21],100%
same,residual activity,[22],100%
same,residual activity,[23],100%
same,residual activity,[24],100%
same,residual activity,[25],100%
same,residual activity,[26],100%
same,residual activity,[27],92%
same,residual activity,[28],100%
same,residual activity,[29],100%
same,residual activity,[30],49%
same,residual activity,[31],100%
same,residual activity,[32],95%
same,residual activity,[33],95%
same,residual activity,[34],100%
same,residual activity,[35],100%
same,residual activity,[36],100%
same,residual activity,[37],100%
same,residual activity,[38],95%
same,residual activity,[39],100%
same,residual activity,[40],98%
same,residual activity,[41],94%
same,residual activity,[42],100%
same,residual activity,[43],69%
same,residual activity,[44],55%
same,residual activity,[45],84%
